Assay results: the NIST ThermoML archive (doi:10.1021/je9002114)
± gives the expanded uncertainty stated by the source.

Legend:
[1] = 298.15 K
[2] = xn = mol fraction of the nth substance listed; conditions: 298.15 K, Ring tensiometer

CN(C)C=O [dimethylformamide]
Conditions | surface tension liquid-gas [mN/m]
[1], Ring tensiometer | 36.98 ± 0.54

Conditions | mass density [kg/m3]
[1], 101.33 kPa, Liquid | 943.81 ± 0.64

CCCCCCOC(C)=O [hexyl ethanoate] + C1COCCO1
[2]
Conditions | surface tension liquid-gas [mN/m]
x1 = 0.0467 | 32.56 ± 0.49
x1 = 0.0925 | 32.06 ± 0.48
x1 = 0.1414 | 31.56 ± 0.48
x1 = 0.1905 | 31.1 ± 0.47
x1 = 0.2422 | 30.62 ± 0.47
x1 = 0.2921 | 30.17 ± 0.46
x1 = 0.3417 | 29.79 ± 0.46
x1 = 0.3934 | 29.43 ± 0.46
x1 = 0.4434 | 29.11 ± 0.45
x1 = 0.495 | 28.81 ± 0.45
x1 = 0.5433 | 28.56 ± 0.45
x1 = 0.5962 | 28.29 ± 0.44
x1 = 0.6408 | 28.09 ± 0.44
x1 = 0.6859 | 27.91 ± 0.44
x1 = 0.7406 | 27.71 ± 0.44
x1 = 0.7981 | 27.52 ± 0.44
x1 = 0.8426 | 27.38 ± 0.43
x1 = 0.8954 | 27.22 ± 0.43
x1 = 0.9448 | 27.12 ± 0.43

CCCCOC(C)=O [butyl ethanoate] + CN(C)C=O
[2]
Conditions | surface tension liquid-gas [mN/m]
x1 = 0.0508 | 35.02 ± 0.52
x1 = 0.0995 | 33.45 ± 0.5
x1 = 0.1441 | 32.35 ± 0.49
x1 = 0.1809 | 31.7 ± 0.48
x1 = 0.25 | 30.5 ± 0.47
x1 = 0.2962 | 29.75 ± 0.46
x1 = 0.3447 | 29.19 ± 0.45
x1 = 0.3904 | 28.66 ± 0.45
x1 = 0.4455 | 28.19 ± 0.44
x1 = 0.4954 | 27.69 ± 0.44
x1 = 0.5443 | 27.35 ± 0.43
x1 = 0.5956 | 27.07 ± 0.43
x1 = 0.648 | 26.66 ± 0.43
x1 = 0.6993 | 26.36 ± 0.42
x1 = 0.7466 | 26.16 ± 0.42
x1 = 0.7935 | 25.81 ± 0.42
x1 = 0.8467 | 25.65 ± 0.42
x1 = 0.8983 | 25.47 ± 0.42
x1 = 0.9464 | 25.26 ± 0.41

CCCCCOC(C)=O [pentyl ethanoate] + C1COCCO1
[2]
Conditions | surface tension liquid-gas [mN/m]
x1 = 0.05 | 32.35 ± 0.49
x1 = 0.1026 | 31.65 ± 0.48
x1 = 0.1516 | 31.05 ± 0.47
x1 = 0.2062 | 30.52 ± 0.47
x1 = 0.2562 | 30.05 ± 0.46
x1 = 0.311 | 29.48 ± 0.46
x1 = 0.3637 | 29.01 ± 0.45
x1 = 0.4209 | 28.58 ± 0.45
x1 = 0.4616 | 28.27 ± 0.44
x1 = 0.5112 | 27.92 ± 0.44
x1 = 0.5614 | 27.55 ± 0.44
x1 = 0.6136 | 27.3 ± 0.43
x1 = 0.6558 | 27.07 ± 0.43
x1 = 0.7043 | 26.89 ± 0.43
x1 = 0.7538 | 26.71 ± 0.43
x1 = 0.8033 | 26.56 ± 0.43
x1 = 0.8511 | 26.39 ± 0.42
x1 = 0.8956 | 26.26 ± 0.42
x1 = 0.9449 | 26.12 ± 0.42
